Assay results reported in patent US12576107B2, “Methods of treating chronic inflammatory diseases” (METIMEDI PHARMACEUTICALS CO., LTD., priority 2018, dated 2026).
Entries after “also recorded” stand apart in the source; their conditions may differ.

Tests used:
[1] = system: nonalcoholic steatohepatitis (NASH) mice; test: Liver CID (NASH) in vivo experiment, methionine-choline deficient (MCD) diet; details: 2 mg/kg subcutaneous B.I.D
Procedure: Female 5-week-old C57BL/6 mice were purchased form KOATEC (Pyeongtaek, South Korea) and were fed Methionine-Choline diet (MCD) for 4 weeks. When the mice weighed 15 g each, the mice were autopsied randomly to identify nonalcoholic steatohepatitis (NASH).
Mouse liver tissues (n=5) were dissected and fixed in 4% paraformaldehyde PBS solution for 15 h at 4° C. Fixed liver tissues were embedded in paraffin and sectioned at 10 μm. Slides were incubated at 55° C. for 2 h, and subsequently deparaffinized in xylene and rehydrated in a graded ethanol series and used for hematoxylin (Merck, Darmstadt, Germany) and eosin (H&E) staining (35). Paraffin sections (10 μm thick) stained with H&E were imaged using a Leica DM 1000 LED microscope (Leica Microsystems, Wetzlar, Germany).
Mouse liver tissues (n=5) were dissected and fixed in 4% paraformaldehyde PBS solution for 15 h at 4° C. Fixed tissues were embedded in paraffin and sectioned at 5 mm. Slides were incubated at 55° C. for 2 h, and subsequently deparaffinized in xylene and rehydrated in a graded ethanol series and re-fix in Bouin's solution for 1 hr at 56° C., remove the yellow color to rinse running tap water for 5-10 min and stained Biebrich scarlet-acid fuchsin solution for 5 min then in phosphomolybdic-phosphotungstic acid solution (ratio 1:1) for 30 minutes, and aniline blue solution and stain for 15 minutes. Rinse briefly in distilled water and in 1% acetic acid solution for 2-5 min. […] Mount with mounting medium. Imaged using a Leica DM 1000 LED microscope (Leica Microsystems, Wetzlar, Germany).
Animal Model for liver diseases. […] Female 5-week-old C57BL/6 mice were purchased form KOATEC (Pyeongtaek, South Korea) and were fed Methionine-Choline (MCD) diet for 4 weeks. […] Histological analysis. Mouse Liver tissues (n=5) were dissected and fixed in 4% paraformaldehyde PBS solution for 15 h at 4° C. Fixed liver tissues were embedded in paraffin and sectioned at 10 μm. Slides were incubated at 55° C. for 2 h, and subsequently deparaffinized in xylene and rehydrated in a graded ethanol series and used for hematoxylin (Merck, Darmstadt, Germany) and eosin (H&E) staining. Paraffin sections (10 μm thick) stained with H&E were imaged using a Leica DM 1000 LED microscope (Leica Microsystems, Wetzlar, Germany
Masson Trichrome Stain. Mouse Liver tissues (n=5) were dissected and fixed in 4% paraformaldehyde PBS solution for 15 h at 4° C. Fixed tissues were embedded in paraffin and sectioned at 5 mm. Slides were incubated at 55° C. for 2 h, and subsequently deparaffinized in xylene and rehydrated in a graded ethanol series and re-fix in Bouin's solution for 1 hr at 56° C., remove the yellow color to rinse running tap water at 5-10 min and stained Biebrich scarlet-acid fuchsin solution for 5 min than in phosphomolybdic-phosphotungstic acid solution (ratio 1:1) for minutes, and aniline blue solution and stain for 15 minutes. Rinse briefly in distilled water and in 1% acetic acid solution for 2-5 minutes. […] Mount with mounting medium. Imaged using a Leica DM 1000 LED microscope (Leica Microsystems, Wetzlar, Germany).
To induce NASH, mice were fed methionine-choline deficient (MCD) diet with polyunsaturated fat for 8 weeks. […] Results are MEAN±SD.

[2] = system: hypoxia-mediated factors; test: Liver CID in vitro experiment, Western blot in HepG2 cells; type: cell-based, Human; details: 2.5 mM, HepG2 cells (liver epithelium)
Procedure: (§1) Human Hepatocellular carcinoma cell line, HepG2, was purchased from American Type Culture Collection (Manassas, VA, USA). The HepG2 cells were maintained in RPMI 1640 containing 10% fetal bovine serum (Life Technologies, Gaithersburg, MD, USA), 100 IU/ml penicillin, and 100 μg/ml streptomycin (Welgene, Daegu, South Korea).
(§2) To prepare whole cell lysate, cells were lysed with lysis buffer (1% NP-40, 0.25% sodium deoxycholate, 150 mM NaCl, 1 mM EDTA, 1% Triton X-100, 50 mM Tris-HCl (pH 7.4), 10% Glycerol) with protease inhibitor cocktail (Roche, Basel, Switzerland) and phosphatase inhibitors (NA3VO4 1 mM, NaF 100 mM). Then, protein concentration was measured using the Bicinchoninic acid (BCA) assay kit (Thermo Scientific, Waltham, MA). Whole cell or nuclear lysates were transferred onto polyvinylidene fluoride membranes (Merck Millipore, Billerica, MA, USA). After blocking in 5% non-fat milk (Bio-Rad, Hercules, CA, USA) for 1 h, the membranes were incubated overnight at 4° C. with primary antibody diluted in TBST containing 100 mM Tris-HCl (pH 7.5), 1.5 M NaCl, and 0.5% Tween-20 obtained from Sigma-Aldrich, to which 5% BSA and 0.1% sodium azide (Sigma-Aldrich) had been added. Specific primary antibodies to HIF-1α (1:1000), HIF-2α (1:1000), LDH-A (1:1000), LDH-B (1:1000), TLR-4 (1:1000), NF-κB (1:1000), VEGF (1:1000), α-tubulin (1:1000), Actin (1:1000), and GAPDH (1:5000). […]

[3] = system: toll like receptor 4; test: Immunocytochemistry of toll like receptor 4 in ARPE-19 cells; type: cell-based, Human; details: 2.5 mM, hypoxia
Procedure: (§3) Human retinal pigment epithelium cell line, ARPE-19, was purchased from American Type Culture Collection (Manassas, VA, USA). The ARPE-19 cells were maintained in RPMI1640 containing 10% fetal bovine serum (Life Technologies, Gaithersburg, MD, USA), 100 IU/ml penicillin, and 100 μg/ml streptomycin (Welgene, Daegu, South Korea).
(§4) ARPE-19 and SK-N-SH cells were fixed on bio-coated coverslips (BD bioscience, San Jose, CA, USA) by 4% PFA for 20 min and then incubated with the primary antibodies for 15 h. The primary antibodies were as follows: HIF-1a (1:300, BD Biosciences, San Jose, CA, USA); LDH-A (1:300, Santa Cruz Biotechnology, Santa Cruz, CA, USA); LDH-B (1:300, Santa Cruz Biotechnology, Santa Cruz, CA, USA); NF-κB (1:300, Santa Cruz Biotechnology, Santa Cruz, CA, USA); TLR-4 (1:300, Santa Cruz Biotechnology, Santa Cruz, CA, USA); apoE (1:200, Santa Cruz Biotechnology, Santa Cruz, CA, USA). After PBS wash, the cells were incubated with anti-mouse secondary biotinylated antibody (1:2000, Vector Laboratorie, Burlingame, CA, USA) and visualized with streptavidin conjugated to Fluorescein (Vector Laboratorie, Burlingame, CA, USA). […] Confocal fluorescence images were obtained with confocal laser scanning microscopy (LSCM, Nikon A1+, Tokyo, Japan) under a 60× oil immersion lens.

[4] = system: hypoxia inducible factor-1α (HIF-1α); test: Immunocytochemistry of HIF-1α in ARPE-19 cells; type: cell-based, Human; details: 2.5 mM
Procedure: as §3, §4

[5] = system: hypoxia-mediated factors; test: Eye CID in vitro experiment, Western blot in ARPE-19 cells; type: cell-based, Human; details: 2.5 mM; ARPE-19 cells (retinal pigment epithelium); normoxia and hypoxia
Procedure: as §3, §2

[6] = system: NF-κb; test: Western blot of NF-κb in the tissue of retinal pigment epithelium; type: in vivo, mice; details: 2.5 mM (so in the source)
Procedure: as §2, with “(1:5000). The next day, the membranes were washed with TBST and incubated for 2 h with anti-rabbit secondary antibody (1:10000). Immunoblots were developed using a western blot detection reagent (Abclone, Seoul, Korea) and exposed to x-ray film (Agfa, Leverkusen, Germany) according to the manufacturer's protocol.” for “(1:5000).”

[7] = system: lactate dehydrogenase A; test: Immunocytochemistry of lactate dehydrogenase A in ARPE-19 cells; type: cell-based, Human; details: 2.5 mM, normoxia
Procedure: as §3, §4

[8] = system: TLR-4; test: Western blot of TLR-4 in HepG2 cells; type: cell-based, Human; details: 2.5 mM; HepG2 cells (liver epithelium); hypoxia
Procedure: as §1, §2

[9] = system: Indomethacin-induced Crohn's disease rats; test: Crohn's disease model, oral Indomethacin; type: in vivo, Sprague-Dawley (SD) rats; details: Four-week after treatment
Procedure: Animals. […] Six-week old male Sprague-Dawley (SD) rats were obtained from Samtako Co. (Osan, Gyeonggi-do, Republic of Korea) and bred under specific-pathogen-free (SPF) conditions. All animals were maintained in a 12-hour light/dark cycle at 22-25° C. with free access to food and water.
Agents and animal model. To induce Crohn's disease and colitis, Indomethacin was purchased from Sigma Chemical (St. Louis, Missouri, USA) and was dissolved in saline. […] Two models of inflammatory bowel disease were used. Crohn's disease was induced by oral administration of Indomethacin (7 mg/kg), and colitis was induced by subcutaneous injections of Indomethacin (7 mg/kg) daily at a 24 h intervals (FIGS. 40 and 42).
Histological analysis. The fixed flat-mounts were dehydrated in a graded series of ethanol and embedded in paraffin.

In the case of `CC(O)C(=O)[O-].CC(O)C(=O)[O-].[Ca+2]` (stereo not drawn) [calcium lactate], the “liver fibrosis (collagen accumulation)” value ([1]; Masson trichrome) is reported as “not present”, the “serum alanine aminotransferase (ALT)” value ([1]; P<0.001 vs. MCD) is reported as “significantly decreased” and the “serum aspartate aminotransferase (AST)” value ([1]; P<0.001 vs. MCD) is reported as “significantly decreased”. The “immune cell infiltration in the liver” value ([1]; histology) was “decreased”, the “lipid droplets in the liver” value ([1]; histology) was “not observed; also recorded: not present” and the liver steatosis ([1]; histology) was “prevented”. The “hypoxia-mediated factors, Western blot” value [2] was “changed”, the “inflammatory factor (toll like receptor 4), immunocytochemistry” value [3] was “decreased” and the “hypoxia inducible factor-1α (HIF-1α), immunocytochemistry” value [4] was “decreased”. For the same compound, the “hypoxia-mediated factors, Western blot” value [5] was “decreased”, the “inflammatory factor (NF-κb), Western blot” value [6] was “decreased” and the “lactate dehydrogenase A, immunocytochemistry” value [7] was “decreased”. For the same compound, the “inflammatory factor (TLR-4), Western blot” value [8] was “decreased”, the “transmural inflammation and linear ulceration in the intestinal tissues” value ([9]; 2 mg/kg daily subcutaneous) was “clearly decreased” and the “morphology of intestinal tissues vs. normal control” value [9] was “morphologically recovered”.
